In brackets after ≈: the same amount, converted by molar mass.
Experiments:
[1] = Solubility of FR901228 substance in solvents; format: physicochemical
Aspergillus niger = assay: Antimicrobial activity, agar dilution method in Sabouraud medium; format: cell-based; settings: 48 hours incubation at 25° C.
Method: (§1) Antimicrobial activity of FR901228 was performed by an agar dilution method in Sabouraud medium.
(§2) Minimum inhibitory concentration (MIC) is expressed in terms of μg/ml after 48 hours incubation at 25° C.

[2] = system: Aureobasidium pullulans IFO 4466; assay: as above; format: cell-based; settings: 48 hours incubation at 25° C.
Method: as §1, §2

Shizosaccharomyces pombe = assay: as above; format: cell-based; settings: 48 hours incubation at 25° C.
Method: as §1, §2

A549 (lung cancer) = assay: Inhibition of human tumor cell growth in vitro (MTT cytotoxicity test); format: cell-based; settings: four days
Method: (§3) The cytotoxicity test was performed in microtiter plates, with each well containing 3×10^3 tumor cells in 100 μl Dulbecco's minimum essential medium supplemented with 10% fetal calf serum, penicillin (50 units/ml) and streptomycin (50 μg/ml). The cells were incubated at 37° C. for four days and the colorimetric MTT [3-(4,5-dimethylthiazol-2-yl)-2,5-diphenyl tetrazolium bromide, made by Sigma] assay was performed according to the method described by Mosmann (J. Immunol. Methods, 65, 55-63, 1983). MTT was dissolved in phosphate buffer solution (PBS) at 5 mg/ml and filtered to sterilize and remove a small amount of insoluble residue. After the culture of human tumor cells was terminated, this MTT solution (10 μl per 100 μl medium) was added to all wells of an assay, and plates were further incubated at 37° C. for 4 hours. Acid-isopropanol (100 μl of 0.04N HCl in isopropanol) was added to all wells and mixed thoroughly to dissolve the dark blue crystals. After all crystals were dissolved, the plates were read on a 2-wavelength microplate photometer (Model MTP-22; Corona Electric Co., Ltd., Katsuta, Japan) at 550 nm, a reference wavelength of 660 nm. The object compound of this invention was dissolved in methanol and diluted in Dulbecco's minimum essential medium and added to the culture to give final concentration of 1 μg/ml or less.

MCF-7 (breast cancer) = assay: as above; format: cell-based; settings: four days
Method: as §3

SW480 (colon cancer) = assay: as above; format: cell-based; settings: four days
Method: as §3

P388 murine leukemia = assay: Antitumor activity against P388 murine leukemia; format: in vivo, BDFl mice; settings: for Mean Survival Time: once daily for four days from 24 hours after inoculation, BDFl mice; for Time (%) (T/C % of mean survival time): 100× treated group/control group
Method: Antitumor activity of FR901228 substance was determined in murine tumor system. P388 leukemia cells […] were implanted intraperitoneally into BDFl mice (female, 8 weeks old). Twenty-four hours after the inoculation of tumor cells, FR901228 substance was administered intraperitoneally to mice. Administrations of FR901228 substance were continued intraperitoneally once daily for another three days. FR901228 substance was suspended in 0.9% saline. Control mice received intraperitoneal doses of 0.9% saline.
Antitumor activity was expressed as the mean survival time of group and also expressed as the T/C % (100× treated group/control group) of mean survival time.

[3] = 0.32 mg/kg/day intraperitoneally
[4] = 1.0 mg/kg/day intraperitoneally

With `C/C=C1\NC(=O)[C@H]2CSSCC/C=C/[C@H](CC(=O)N[C@H](C(C)C)C(=O)N2)OC(=O)[C@H](C(C)C)NC1=O` [FR901228 substance] the Solubility ([1]; chloroform) was “soluble”, the Solubility ([1]; ethanol) was “sparingly soluble” and the Solubility ([1]; ethyl acetate) was “soluble”. For the same molecule, the Solubility ([1]; hexane) was “insoluble”, the Solubility ([1]; methanol) was “sparingly soluble” and the Solubility ([1]; water) was “insoluble”. The MIC (Aspergillus niger) was 100 µg/mL (≈ 185 µM), the MIC [2] was 10 µg/mL (≈ 18.5 µM) and the MIC (Shizosaccharomyces pombe) was 10 µg/mL (≈ 18.5 µM). The IC50 (A549 (lung cancer)) was 0.00082 µg/mL (≈ 0.00152 µM), the IC50 (MCF-7 (breast cancer)) was 0.00099 µg/mL (≈ 0.00183 µM) and the IC50 (SW480 (colon cancer)) was 0.00057 µg/mL (≈ 0.00105 µM). For the same molecule, the “Mean Survival Time” value (P388 murine leukemia; [3]) was 14.25 days, the “Time (%) (T/C % of mean survival time)” value (P388 murine leukemia; [3]) was 158.3% and the “Mean Survival Time” value (P388 murine leukemia; [4]) was 15.25 days. The “Time (%) (T/C % of mean survival time)” value (P388 murine leukemia; [4]) was 169.4%.

From patent US4977138A, “FR901228 substance and preparation thereof” (Fujisawa Pharmaceutical Co., Ltd., priority 1988, dated 1990)
